Values quoted from earlier work, collected in paper PMC9411704, “Assessment of the Carcinogenic Potential of Pretomanid in Transgenic Tg.rasH2 Mice” (International Journal of Toxicology, 2022).

Parameters: method as in PMID 32130813
Conditions: 200 mg/day, clinical study NCT02333799; cited from earlier work

O=[N+]([O-])c1cn2c(n1)OC[C@@H](OCc1ccc(OC(F)(F)F)cc1)C2 [Pretomanid, (6S)-2-nitro-6-{[4-(trifluoromethoxy)benzyl]oxy}-6,7-dihydro-5H-imidazo[2,1-b][1,3]oxazine]
Human AUC0-24: 50900 ng·h/mL
